In assay [1] the test system is MOLM13. The experiment in a line: Tumor growth inhibitory activities in nude mice xenograft model inoculated with human leukemia cells MOLM13. Format: in vivo. The following applies: Mus musculus, MOLM-13, po, 50 mg/kg orally once a day, read-out: TGIR (%) (measurement date). How it is done:
Pharmacological Test Example 5
Tumor Growth Inhibitory Activities in Nude Mice Xenograft Model Inoculated with Human Leukemia Cells
Human leukemia cells MOLM13 (subdivided from Hayashibara Biochemical Laboratories, Inc.) were subcutaneously transplanted into nude mice. […] The test compound suspended or dissolved in 0.5% methylcellulose was orally administered at a dose of 0.1 ml per 10 g body weight once a day for 9 days. For the control group, only vehicle was administered.
The tumor growth inhibition rate (TGIR) was calculated as follows:
The tumor growth inhibition rate (TGIR)=(1−TX/CX)×100
wherein CX represents the volume of tumor at day X for the control group when the tumor volume at the day of the start of the administration (day 1) was presumed to be 1; and TX represents the volume of tumor at day X for test compound administration groups.
For orientation: A xenograft is tissue or cells of one species grown in another, often human tumour cells in immunodeficient mice.

A further assay relates to MV4-11. The experiment in a line: Cell growth inhibitory test MV4-11 (WST-1). Format: cell-based, human. The following applies: Homo sapiens, MV4-11, 72 h, MV4-11 cells, 3 days culture. As for the experimental part:
Pharmacological Test Example 2
Cell Growth Inhibitory Test
MV4-11 (ATCC number: CRL-9591) as human leukemia cells was seeded in an amount of 3×10^3 using a DMEM medium containing 10% fetal calf serum (purchased from GIBCO) in a 96-well flat bottom plate.
(§1) A solution of a test compound in dimethyl sulfoxide was added to each well and was cultured in a 5% carbon dioxide incubator for 3 days. Three days after the initiation of the culture, 10 μl of a WST-1 solution in Cell Counting Kit (purchased from Wako Pure Chemical Industries, Ltd.) was added to each well for a color reaction. After proper color development, the absorbance was measured with a microplate reader under conditions of measurement wavelength 450 nm and reference wavelength 650 nm. The growth ratio for each well was determined by presuming the absorbance without the addition of the medicament to be 100% growth ratio and the absorbance of the well without seeding of the cells to be 0% growth ratio. The concentration of the test compound was varied on several levels, the cell growth ratio for each case was determined, and the concentration of the test compound necessary for inhibiting 50% of cell growth ratio (IC50) was calculated.

In assay [2] the test system is MOLM13. The assay is described as follows: Cell growth inhibitory activity using MTT method (MOLM13). It is filed as cell-based, human. The following applies: Homo sapiens, MOLM-13, 72 h, MOLM13 cells. As for the experimental part:
Pharmacological Test Example 3
Measurement of Cell Growth Inhibitory Activity Using MTT Method
Human leukemia cell line MOLM13 (subdivided from Hayashibara Biochemical Laboratories, Inc.) was cultured in an RPMI medium containing 10% fetal calf serum (purchased from Asahi Techno Glass Corporation) within a 5% carbon dioxide incubator until the cell density reached 50 to 90% of the maximum cell density. These cells were seeded into wells, containing an RPMI medium containing 10% fetal calf serum, in a 96-well flat bottom plate in an amount of […] per well. The amount of the solution of the medium in each well was brought to 100 μl, and a test compound was added thereto to 500 ng, 100 ng, 20 ng, and 4 ng per ml. After culture within an incubator for 72 hr, 10 μl of a 5 mg/ml MTT (3-(4,5-dimethylthiazol-2-yl)-2,5-diphenyl tetrazolium bromide) solution (purchased from SIGMA) was added to the medium, and a reaction was allowed to proceed for 4 hr. Thereafter, 100 μl of a 0.04 N hydrochloric acid-isopropanol solution was added to completely dissolve the resultant MTT formazan crystal. After the dissolution, absorbance at 550 nm was measured using 620 nm as a reference wavelength with a microplate reader (DIGISCAN) (It is regarded that, in the MTT method, the viable cell count is reflected, and linearity is observed in a cell count per well range of 5×10^5 to 2×10^2 cells). After 72 hr, the absorbance of only the medium free from cells was subtracted from the absorbance of the well without the addition of the test compound to determine a value which was presumed to be 100%. On the other hand, the absorbance with the addition of the compound was expressed in terms of % growth.
For orientation: Tetrazolium dyes change colour on reduction, which living cells bring about.

The test system of assay [3] is MOLM13. The assay is described as follows: Cell growth inhibitory activities on cultured human leukemia cells MOLM-13 (WST-1). It is filed as cell-based. The following applies: Homo sapiens, MOLM-13, 72 h, 3 days culture. How it is done:
Pharmacological Test Example 4
Cell Growth Inhibitory Activities on Cultured Human Leukemia Cells
as §1, with “Human leukemia cells MOLM13 (subdivided from Hayashibara Biochemical Laboratories, Inc.) were seeded in an amount of 3×10^3 using a DMEM medium containing 10% fetal calf serum (purchased from GIBCO) in a 96-well flat bottom plate. A solution” for “A solution”

Structures are written as SMILES. pIC50: −log10 of the molar value. Counter-ions that a name gives are not always drawn. Like-named read-outs stand apart in the source and are kept apart here.

Regarding `COc1cc2c(Oc3ccc(NC(=O)NCCC(C)(C)C)cc3Cl)ccnc2cc1OCCCN1CCN(C)CC1` [Compound 77, 1-(3,3-Dimethyl-butyl)-3-(3-chloro-4-{6-methoxy-7-[3-(4-methyl-piperazin-1-yl)-propoxy]-quinolin-4-yloxy}-phenyl)-urea], the inhibition in vivo at 50 mg/kg in the assay on MOLM13 [1] (216 h, day 9) was 70.4%.
On to `COc1cc2nccc(Oc3ccc(NC(=O)NC4CCCC(C)(C)C4)cc3F)c2cc1OC` (stereo not shown) [Compound 14, 1-[4-(6,7-Dimethoxy-quinolin-4-yloxy)-3-fluoro-phenyl]-3-(3,3-dimethyl-cyclohexyl)-urea], for which the pIC50 (as a rule, the IC50 on a negative log10 scale, so that one unit is a factor of ten) with MV4-11 was 8.70; in the assay on MOLM13 [2] it was 8.29. Half-maximal inhibition in the assay on MOLM13 [3] (IC50) was put at 3 nM. Also, the inhibition in vivo at 50 mg/kg with MOLM13 [1] (240 h, day 10) was found to be 96.1%.
With `COc1cc2nccc(Oc3ccc(NC(=O)NC4CCCC(C)(C)C4)cc3Cl)c2cc1OC` (stereo not shown) [Compound 12, 1-[3-Chloro-4-(6,7-dimethoxy-quinolin-4-yloxy)-phenyl]-3-(3,3-dimethyl-cyclohexyl)-urea], the negative-log IC50 (pIC50) with MV4-11 is 8.30; in the assay with MOLM13 [2], 8.27. Also, in the assay on MOLM13 [3], the IC50 (as a rule, the midpoint of a concentration-inhibition curve) came out at 6 nM. In the assay on MOLM13 [1] (240 h, day 10), the inhibition in vivo at 50 mg/kg was 93.7%.
Consider `COc1cc2c(Oc3ccc(NC(=O)NCCC(C)(C)C)cc3Cl)ccnc2cc1OCCN1CC(C)OC(C)C1` (stereo not shown) [Compound 70, 1-(3-Chloro-4-{7-[2-(2,6-dimethyl-morpholin-4-yl)-ethoxy]-6-methoxy-quinolin-4-yloxy}-phenyl)-3-(3,3-dimethyl-butyl)-urea], for which the pIC50 in the assay on MV4-11 was 8.70; with MOLM13 [2], 7.53. The concentration for half-maximal inhibition (IC50) in the assay on MOLM13 [3] was 3 nM.
On to `COc1cc2nccc(Oc3ccc(NC(=O)NCCC4CCCCC4)cc3Cl)c2cc1OC` [Compound 17, 1-[3-Chloro-4-(6,7-dimethoxy-quinolin-4-yloxy)-phenyl]-3-(2-cyclohexyl-ethyl)-urea], for which the pIC50 is 7.77 with MV4-11 and 7.69 with MOLM13 [2]. In the assay on MOLM13 [3], this molecule yielded an IC50 of 27 nM.
On to `COc1cc2c(Oc3ccc(NC(=O)NCCC(C)C)c(F)c3)ccnc2cc1OCCN1CCOCC1` [Compound 73, 1-{2-Fluoro-4-[6-methoxy-7-(2-morpholin-4-yl-ethoxy)-quinolin-4-yloxy]-phenyl}-3-(3-methyl-butyl)-urea], for which the results for the pIC50 in the assay with MV4-11 and in the assay with MOLM13 [2] were 8.22 and 7.67, respectively. The molecule also had an IC50 with MOLM13 [3] of 20 nM.
Turning to `COc1cc2c(Oc3ccc(NC(=O)NCCC(C)(C)C)cc3)ccnc2cc1OCCN1CC(C)CC(C)C1` (stereo not shown) [Compound 53, 1-(3,3-Dimethyl-butyl)-3-(4-{7-[2-(3,5-dimethyl-piperidin-1-yl)-ethoxy]-6-methoxy-quinolin-4-yloxy}-phenyl)-urea], the pIC50 in the assay with MV4-11 is 8.40; in the assay with MOLM13 [2], 7.78. The molecule also gave an IC50 in the assay with MOLM13 [3] of 13 nM.
As to `COc1cc2c(Oc3ccc(NC(=O)NCCC(C)(C)C)cc3)ccnc2cc1OCCCN1CCN(C)CC1` [Compound 75, 1-(3,3-Dimethyl-butyl)-3-(4-{6-methoxy-7-[3-(4-methyl-piperazin-1-yl)-propoxy]-quinolin-4-yloxy}-phenyl)-urea hydrochloride], in the assay with MV4-11, the pIC50 is greater than 9.00. Besides, the IC50 in the assay with MOLM13 [3] was less than 1 nM. In addition, the inhibition in vivo at 50 mg/kg in the assay on MOLM13 [1] (216 h, day 9) stood at 94.1%.
Regarding `COc1cc2c(Oc3ccc(NC(=O)NCCC4CCCCC4)c(F)c3)ccnc2cc1OCCN1CCCCC1` [Compound 64, 1-(2-Cyclohexyl-ethyl)-3-{2-fluoro-4-[6-methoxy-7-(2-piperidin-1-yl-ethoxy)-quinolin-4-yloxy]-phenyl}-urea], the figures for the pIC50 in the assay on MV4-11 and with MOLM13 [2] were 7.89 and 6.71, respectively. In the assay on MOLM13 [3], the IC50 is 19 nM.
For `COc1cc2c(Oc3ccc(NC(=O)NCCC4CCCC4)c(F)c3)ccnc2cc1OCCN1CCCCC1` [Compound 65, 1-(2-Cyclopentyl-ethyl)-3-{2-fluoro-4-[6-methoxy-7-(2-piperidin-1-yl-ethoxy)-quinolin-4-yloxy]-phenyl}-urea], in that order: 8.40, 7.61 and 9 nM.
Take `COc1cc2nccc(Oc3ccc(NC(=O)NCCC4CCCC4)cc3F)c2cc1OC` [Compound 18, 1-(2-Cyclopentyl-ethyl)-3-[4-(6,7-dimethoxy-quinolin-4-yloxy)-3-fluoro-phenyl]-urea]: the pIC50 with MV4-11 is 9.00; in the assay with MOLM13 [2], 7.39. This molecule yielded an IC50 with MOLM13 [3] of 2 nM.
For `COc1cc2c(Oc3ccc(NC(=O)NCCC(C)(C)C)c(F)c3)ccnc2cc1OCCCN1CCN(C)CC1` [Compound 76, 1-(3,3-Dimethyl-butyl)-3-(2-fluoro-4-{6-methoxy-7-[3-(4-methyl-piperazin-1-yl)-propoxy]-quinolin-4-yloxy}-phenyl)-urea], the inhibition in vivo at 50 mg/kg in the assay with MOLM13 [1] (216 h, day 9) amounted to 34.3%.
For `COc1cc2nccc(Oc3ccc(NC(=O)NCCC4CCCCC4)cc3F)c2cc1OC` [Compound 16, 1-(2-Cyclohexyl-ethyl)-3-[4-(6,7-dimethoxy-quinolin-4-yloxy)-3-fluoro-phenyl]-urea], the negative logarithm of the IC50 (pIC50) in the assay with MV4-11 is 8.40; with MOLM13 [2], 7.73. Further, the IC50 in the assay with MOLM13 [3] was 7 nM.
For `CCN(CC)CCCOc1cc2nccc(Oc3ccc(NC(=O)NCCC(C)(C)C)c(Cl)c3)c2cc1OC` [Compound 47, 1-{2-Chloro-4-[7-(3-diethylamino-propoxy)-6-methoxy-quinolin-4-yloxy]-phenyl}-3-(3,3-dimethyl-butyl)-urea], the results for the pIC50 with MV4-11 and in the assay on MOLM13 [2] were 7.29 and 6.87, respectively. Besides, the IC50 in the assay on MOLM13 [3] is 60 nM.
On to `COc1cc2c(Oc3ccc(NC(=O)NC4CC(C)CC(C)(C)C4)c(F)c3)ccnc2cc1OCCN1CCCCC1` (stereo not shown) [Compound 57, 1-{2-Fluoro-4-[6-methoxy-7-(2-piperidin-1-yl-ethoxy)-quinolin-4-yloxy]-phenyl}-3-(3,3,5-trimethyl-cyclohexyl)-urea], for which the negative-log IC50 (pIC50) was 7.72 in the assay on MV4-11 and 6.92 in the assay with MOLM13 [2]. The same molecule gave an IC50 in the assay with MOLM13 [3] of 29 nM.
For `COc1cc2nccc(Oc3ccc(NC(=O)NCCC(C)(C)C)cc3)c2cc1OCCN1CCOCC1` [Compound 68, 1-(3,3-Dimethyl-butyl)-3-{4-[7-methoxy-6-(2-morpholin-4-yl-ethoxy)-quinolin-4-yloxy]-phenyl}-urea], the pIC50 in the assay on MV4-11 is greater than 9.00; in the assay on MOLM13 [2], 7.88. This molecule returned an IC50 in the assay on MOLM13 [3] of 1 nM.
Take `COc1cc2c(Oc3ccc(NC(=O)NCCC(C)(C)C)c(F)c3)ccnc2cc1OCCN1C(C)CCCC1C` (stereo not shown) [Compound 60, 1-(3,3-Dimethyl-butyl)-3-(4-{7-[2-(2,6-dimethyl-piperidin-1-yl)-ethoxy]-6-methoxy-quinolin-4-yloxy}-2-fluoro-phenyl)-urea]: the pIC50 was 7.48 with MV4-11 and 6.97 in the assay with MOLM13 [2]. The molecule further had a 50% inhibitory concentration (IC50) with MOLM13 [3] of 59 nM.
